The source of these data is patent US20240158446A1, “CYCLIC COMPOUND HAVING SELECTIVE INHIBITORY ACTION ON KRAS OVER HRAS AND NRAS” (CHUGAI SEIYAKU KABUSHIKI KAISHA, priority 2021, published 2024).

In experiment [1] the target is GDP-bound KRAS wild-type protein (Homo sapiens, UniProt P01116). In words: Binding to KRAS by surface plasmon resonance (SPR), Single Cycle Kinetics. The following applies: SPR, Single Cycle Kinetics, GDP-bound KRAS wild-type protein; read-out: KRAS KD. (In general: Surface plasmon resonance follows binding to a sensor surface in real time, without labels.)
GDP-bound KRAS wild-type protein, sequence (P01116 whole entry): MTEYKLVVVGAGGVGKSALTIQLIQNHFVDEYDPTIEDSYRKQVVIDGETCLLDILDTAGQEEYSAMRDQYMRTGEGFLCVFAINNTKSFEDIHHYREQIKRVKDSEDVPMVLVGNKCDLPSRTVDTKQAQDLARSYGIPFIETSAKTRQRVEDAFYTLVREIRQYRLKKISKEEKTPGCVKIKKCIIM
In experiment [2] the target is GDP-bound NRAS wild-type protein (Homo sapiens, UniProt P01111). The experiment in a line: Binding to NRAS by surface plasmon resonance (SPR), Single Cycle Kinetics. The following applies: ratio of KD for GDP-bound NRAS wild-type protein to KD for KRAS, SPR.
GDP-bound NRAS wild-type protein, sequence (P01111 whole entry): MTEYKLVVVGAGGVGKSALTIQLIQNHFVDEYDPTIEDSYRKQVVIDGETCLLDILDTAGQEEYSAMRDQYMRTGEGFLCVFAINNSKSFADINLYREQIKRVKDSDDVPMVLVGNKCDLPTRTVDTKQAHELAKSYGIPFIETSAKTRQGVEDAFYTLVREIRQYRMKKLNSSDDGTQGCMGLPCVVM
In experiment [3] the target is GDP-bound HRAS wild-type protein (Homo sapiens, UniProt P01112). The experiment in a line: Binding to HRAS by surface plasmon resonance (SPR), Single Cycle Kinetics. The conditions noted are these: ratio of KD for GDP-bound HRAS wild-type protein to KD for KRAS, SPR.
GDP-bound HRAS wild-type protein, sequence (P01112 whole entry): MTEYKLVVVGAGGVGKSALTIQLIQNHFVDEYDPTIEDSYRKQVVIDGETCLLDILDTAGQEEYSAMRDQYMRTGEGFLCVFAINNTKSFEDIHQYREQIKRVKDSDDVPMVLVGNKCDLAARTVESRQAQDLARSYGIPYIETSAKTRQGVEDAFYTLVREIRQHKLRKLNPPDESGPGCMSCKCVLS
The test system of experiment [4] is human lung cancer strain NCI-H441. In words: cells. The conditions noted are these: NCI-H441, 96 h, read-out: NCI-H441 IC50 (nM), NCI-H441 cell proliferation, 4 days, CellTiter-Glo.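 Further: cell proliferation inhibition after four days measured by CellTiter-Glo.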

For `CCC[C@H]1C(=O)N[C@@H]([C@@H](C)CC)C(=O)N(C)CC(=O)N(C)[C@H]2C/C=C\CCN(C2=O)[C@@H](Cc2ccc(C)cc2)C(=O)N(C)CC(=O)N[C@@H](CCc2ccc(C(F)(F)F)c(Cl)c2)C(=O)N2C[C@@H](C)C[C@H]2C(=O)NC2(CC(C)(C)C2)C(=O)N(C)[C@@H](C2CCCC2)C(=O)N(C)[C@H](C(=O)N(C)CC)CC(=O)N1C` [PP1893], in experiment [1], the dissociation constant (Kd) was 0.17 nM. The “NRAS/KRAS (KD ratio)” value in experiment [2] was “A (a compound having 10 or more and less than 20 is denoted as A)”. For the same molecule, in experiment [3], the “HRAS/KRAS (KD ratio)” value was “B (a compound having 3 or more and less than 10 is denoted as B)”. Besides, the IC50 in experiment [4] is 18.5 nM.
As to `CCCN(C)C(=O)[C@@H]1CC(=O)N(C)[C@@H](CC)C(=O)N[C@@H]([C@@H](C)CC)C(=O)N(C)CC(=O)N(C)[C@H]2C/C=C\CCN(C2=O)[C@@H](Cc2ccc(C(F)(F)F)cc2)C(=O)N(C)CC(=O)N[C@@H](CCc2cc(F)c(C(F)(F)F)c(F)c2)C(=O)N2C[C@H](OCC)C[C@H]2C(=O)NC2(CCC2)C(=O)N(C)[C@@H](C2CCCC2)C(=O)N1C` [PP1699], the Kd in experiment [1] was determined as 0.095 nM. Also, in experiment [2], the “NRAS/KRAS (KD ratio)” value was “A (a compound having 10 or more and less than 20 is denoted as A)”. Also, the “HRAS/KRAS (KD ratio)” value in experiment [3] was “A (a compound having 10 or more and less than 20 is denoted as A)”. The IC50 in experiment [4] was found to be 2.5 nM.
As to `CCCN(C)C(=O)[C@@H]1CC(=O)N(C)[C@@H](COC)C(=O)N[C@@H]([C@@H](C)CC)C(=O)N(C)CC(=O)N(C)[C@H]2C/C=C\CCN(C2=O)[C@@H](Cc2ccc(C(F)(F)F)cc2)C(=O)N(C)CC(=O)N[C@@H](CCc2cc(F)c(Cl)c(F)c2)C(=O)N2C[C@H](OCC)C[C@H]2C(=O)NC2(CC(C)(C)C2)C(=O)N(C)[C@@H](C2CCCC2)C(=O)N1C` [PP1763], the dissociation constant Kd in experiment [1] is 0.23 nM. The “NRAS/KRAS (KD ratio)” value in experiment [2] is “A (a compound having 10 or more and less than 20 is denoted as A)”. Moreover, in experiment [3], the “HRAS/KRAS (KD ratio)” value is “A (a compound having 10 or more and less than 20 is denoted as A)”. Moreover, the IC50 in experiment [4] is 13.3 nM.
As for `CCC[C@H]1C(=O)N[C@@H]([C@@H](C)CC)C(=O)N(C)CC(=O)N(C)[C@H]2C/C=C\CCN(C2=O)[C@@H](Cc2ccc(C)cc2)C(=O)N(C)CC(=O)N[C@@H](CCc2ccc(C(F)(F)F)c(OC)c2)C(=O)N2C[C@H](OCC)C[C@H]2C(=O)NC2(CCC2)C(=O)N(C)[C@@H](C2CCCC2)C(=O)N(C)[C@H](C(=O)N(C)C)CC(=O)N1C` [PP1871], the Kd in experiment [1] worked out at 0.099 nM. Moreover, in experiment [2], the “NRAS/KRAS (KD ratio)” value is “A (a compound having 10 or more and less than 20 is denoted as A)”. In addition, the “HRAS/KRAS (KD ratio)” value in experiment [3] is “A (a compound having 10 or more and less than 20 is denoted as A)”. The IC50 in experiment [4] was 13.1 nM.
For `CCC[C@H]1C(=O)N[C@@H]([C@@H](C)CC)C(=O)N(C)CC(=O)N(C)[C@H]2C/C=C\CCN(C2=O)[C@@H](Cc2ccc(C)cc2)C(=O)N(C)CC(=O)N[C@@H](CCc2ccc(C(F)(F)F)c(Cl)c2)C(=O)N2C[C@H](OCC)C[C@H]2C(=O)NC2(CCC2)C(=O)N(C)[C@@H](C2CCCC2)C(=O)N(C)[C@H](C(=O)N(C)CC)CC(=O)N1C` [PP1895], in experiment [1], the dissociation constant Kd was determined as 0.13 nM. In addition, in experiment [2], the “NRAS/KRAS (KD ratio)” value is “A (a compound having 10 or more and less than 20 is denoted as A)”. For the same molecule, the “HRAS/KRAS (KD ratio)” value in experiment [3] was “B (a compound having 3 or more and less than 10 is denoted as B)”. In experiment [4], the IC50 is 15.6 nM.
Consider `CC[C@H](C)[C@@H]1NC(=O)[C@H](CC)N(C)C(=O)C[C@@H](C(=O)N(C)C)N(C)C(=O)[C@H](C2CCCC2)N(C)C(=O)C2(CCC2)NC(=O)[C@@H]2CCCN2C(=O)[C@H](CCc2cc(C)c(Cl)c(C)c2)NC(=O)CN(C)C(=O)[C@H](Cc2ccc(C(F)(F)F)cc2)N2CC/C=C\C[C@@H](C2=O)N(C)C(=O)CN(C)C1=O` [PP1822], for which, in experiment [1], the Kd was 1.1 nM. In experiment [2], the “NRAS/KRAS (KD ratio)” value was “A (a compound having 10 or more and less than 20 is denoted as A)”. Besides, the “HRAS/KRAS (KD ratio)” value in experiment [3] is “B (a compound having 3 or more and less than 10 is denoted as B)”. In experiment [4], the IC50 turned out to be 107 nM.

In general, Kd refers to a measure of binding affinity in units of concentration.
